Experimental findings from patent publication US20250352615A1, “COMPOSITIONS AND METHODS FOR THE MODULATION OF PIEZO1 AND TRPV4” (Duke University, priority 2021, published 2025) are described below.

What all share (format): cell-based
For test [1], the system named is human PSCs. Put plainly: Human PSC activation and fibrogenic response (fat droplets, cell shape, ECM mRNA and immunostaining). On the procedure: (§1) Mouse and human PSCs were isolated using collagenase digestion. Modified Krebs Henseleit Buffer (KHB) solution (100 mL) was prepared as previously described by Romac et al., Nat. Commun. 9(1):1715 (2018). Pancreatic tissue was digested with 2 mg of collagenase NB 8 (SERVA, catalog 17456) dissolved in 10 mL of modified KHB solution containing 1 mg soybean trypsin inhibitor (SBTI 1-S; Millipore Sigma, catalog T9003) and 20 mg BSA (Thermo Fisher Scientific; BP1600-100). Digestion solution (5 mL) was used to inflate the pancreas. Pancreas with 5 mL of digestion solution was incubated in a shaking water bath for 10 minutes at 37° C. The solution was then discarded. The pancreas tissue was cut into small pieces and digested with fresh 5 mL digestion buffer. Tissue was incubated in a shaking water bath for 40 minutes at 37° C. The cells were then separated from tissue by pipetting up-down with a 10 mL pipette and passed sequentially through a 70 μm and a 40 μm cell strainer. The filtrate was centrifuged at 150×g for 3 minutes at room temperature. The cells were washed with 10 mL Leibovitz's media (Thermo Fisher Scientific, catalog 11415-064), passed through a 20 μm filter, and centrifuged at 80×g for 3 minutes at room temperature. The supernate was removed, and isolated stellate cells were plated on a thin-layered Matrigel-coated glass bottom culture plate (MatTek, P35G-0-14-C). Before plating the cells, Matrigel solution (Corning, catalog 354234) at a ratio of 1.5:100 DMEM/F12 (Thermo Fisher Scientific, catalog 11330-032) was poured onto the culture plate and incubated for 2 hr at 37° C. to form a thin layer of Matrigel coating. Matrigel mixture was removed, and the plate was washed with PBS before cells were plated. Cell culture media, DMEM/F12 with 5% FBS was used for mouse stellate cells. Fresh, human pancreatic tissue was digested with collagenase as described above with modifications. Collagenase (2.5 mg) in 10 mL of modified KHB solution was used for digestion. The digested tissues were filtered through a 100 μm cell strainer. The cells were cultured with DMEM/F12 with 10% FBS in a Matrigel-coated plate. After 24 hr, the cell media was replaced with fresh media to remove unattached and dead cells. After 2 days, cells were immunostained for GFAP and used for experiments. Perinuclear fat droplets were stained with BODIPY 493/503 (4,4-Difluoro-1,3,5,7,8-Pentamethyl-4-Bora-3a,4a-Diaza-s-Indacene; Invitrogen, catalog D3922) to confirm stellate cell quiescence. The cell viability following Yoda1 treatment was analyzed using the Live/Dead cell imaging kit (Thermo Fisher Scientific, catalog R37601). RNAs were isolated using the RiboPure Kit (Invitrogen, catalog AM1924) according to manufacturer's instructions.
Fluid shear stress and mechanical pushing applied to stellate cells were achieved as previously described by Wang et al., J. Clin. Invest. 126(12): 4527-4536 (2016). Parallel-plate fluid flow chambers (μ-Slide I 0.4 Luer, or μ-Slide I 0.2 Luer from Ibidi) were used for fluid shear stress experiments. The fluid shear stress (T) was calculated using the formula: τ=η×[…] φ for μ-Slide I 0.4 Luer and τ=η×330.4 φ for μ-Slide I 0.2 Luer, where r represents viscosity of the medium and φ represents flow rate (according to the manufacturer's instructions, Ibidi). Mechanical pushing was achieved by applying a blunt borosilicate glass pipette once to the cell membrane with a deflection of 2-3 μm for 1 second using a micromanipulator (World Precision Instruments).
Mouse and human PSCs were washed with PBS (pH 7.4) and fixed with 4% paraformaldehyde for 10 minutes at room temperature. The fixed cells were treated with 0.1% Triton X-100. […]

The subject of test [2] is mouse PSCs. The test can be described thus: Mouse PSC activation and fibrogenic response. The note with it: Yoda1 25 μM. On the procedure: as §1, with “Collagenase (2.5 mg) in 10 mL of modified KHB solution was used for digestion. The digested tissues were filtered through a 100 μm cell strainer. The cells were cultured with DMEM/F12 with 10% FBS in a Matrigel-coated plate. After 24 hr, the cell media was replaced with fresh media to remove unattached and dead cells. After 2 days, cells were immunostained for GFAP and used for experiments. Perinuclear fat droplets were stained with BODIPY 493/503 (4,4-Difluoro-1,3,5,7,8-Pentamethyl-4-Bora-3a,4a-Diaza-s-Indacene; Invitrogen, catalog D3922) to confirm stellate cell quiescence.” left out, “RNAs were isolated using the RiboPure Kit (Invitrogen, catalog AM1924) according to manufacturer's instructions.” left out

Test [3] concerns the target T1, TRPV4 (Mus musculus, UniProt Q9EPK8).
T1 construct: endogenous in cells; host or cells: freshly isolated mouse pancreatic acini (C57BL/6J WT)
Put plainly: Calcium imaging of TRPV4-mediated [Ca2+]i in pancreatic acini (agonists, shear stress, Yoda1 sustained phase). Particulars: Yoda1. On the procedure:
Mouse pancreatic acini were isolated using a standard collagenase digestion protocol. Isolated acini were plated on a thin-layered, Matrigel-coated, glass-bottom, culture plate (MatTek, P35G-0-14-C). Freshly isolated acini were used in each experiment.
Parallel-plate fluid flow chambers (μ-Slide I 0.4 Luer, and μ-Slide I 0.2 Luer from Ibidi GmbH) were used to measure the shear stress-induced changes in intracellular calcium, mitochondrial depolarization, and trypsin activation. The constant flow rate with shear stress (T) was determined as follows: τ=η×[…] φ for μ-Slide I 0.4 Luer and τ=η×330.4 φ for μ-Slide I 0.2 Luer, where η=viscosity of the medium and φ=flow rate (according to the manufacturer's instructions, Ibidi).
Calcium imaging in pancreatic acini was performed as previously described. The chemicals used in calcium imaging experiments included the following: Yoda1 (Tocris; 5586), GsMTx4 (Abcam; ab141871), 5′,6′-EET (Santa Cruz Biotechnology; sc-221066), AA (Millipore Sigma; A3611), HC067047 (Tocris; 4100), GSK1016790A (Millipore Sigma; G0798), RN1734 (Tocris; 3746), AACOCF3 (Tocris; 1462), YM26734 (Tocris; 2522), GF109203X (Tocris; 0741), and CCK8 (Sigma-Aldrich).

Molecules are shown by their SMILES.

T1 sequence (Q9EPK8 whole entry): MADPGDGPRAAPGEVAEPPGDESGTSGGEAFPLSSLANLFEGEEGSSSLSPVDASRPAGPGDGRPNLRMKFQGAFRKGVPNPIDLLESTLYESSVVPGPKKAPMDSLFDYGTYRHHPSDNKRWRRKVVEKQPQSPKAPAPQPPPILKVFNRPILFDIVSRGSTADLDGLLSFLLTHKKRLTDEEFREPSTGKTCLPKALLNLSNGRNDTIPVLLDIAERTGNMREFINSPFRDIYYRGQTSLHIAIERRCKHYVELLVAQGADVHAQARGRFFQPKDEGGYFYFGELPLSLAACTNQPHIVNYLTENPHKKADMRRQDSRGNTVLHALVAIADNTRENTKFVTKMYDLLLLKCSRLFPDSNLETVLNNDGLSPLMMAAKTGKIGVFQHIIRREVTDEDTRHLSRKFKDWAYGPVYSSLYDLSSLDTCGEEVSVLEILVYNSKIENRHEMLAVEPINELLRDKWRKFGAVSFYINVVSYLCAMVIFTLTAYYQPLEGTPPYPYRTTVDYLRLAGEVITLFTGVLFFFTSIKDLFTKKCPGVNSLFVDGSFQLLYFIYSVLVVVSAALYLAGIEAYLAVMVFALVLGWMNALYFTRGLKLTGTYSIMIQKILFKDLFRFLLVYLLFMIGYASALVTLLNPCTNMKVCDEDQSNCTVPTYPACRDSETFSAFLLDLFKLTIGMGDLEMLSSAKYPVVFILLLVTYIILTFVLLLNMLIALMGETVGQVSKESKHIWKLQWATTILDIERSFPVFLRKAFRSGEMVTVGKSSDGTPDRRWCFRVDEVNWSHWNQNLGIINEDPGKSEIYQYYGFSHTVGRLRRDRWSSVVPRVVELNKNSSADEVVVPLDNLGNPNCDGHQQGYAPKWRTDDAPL

Take `Clc1cccc(Cl)c1CSc1nnc(-c2cnccn2)s1` [Yoda1]: in test [1] (Yoda1 25 μM, 24 hr), the “Fibronectin, collagen type I, and Piezo1 mRNA levels” value is recorded as “significantly elevated”; the TGF-β1 gene expression result is recorded as “stimulation of profibrotic TGF-β1”; the “mean cell area and maximum diameter (mean Feret's diameter-max)” value was “significant increase in mean cell area and maximum diameter”. In addition, in test [1] (Yoda1 25 μM, within 24 hours), the “PSCs that had lost their perinuclear fat droplets” value is given as approximately 80%. In test [1] (after 4 days of Yoda1 25 μM), the “fibronectin and collagen type I immunostaining” value is “abundant”. Further, in test [2], the “activation of PSCs from TRPV4-KO mice (cell shape, perinuclear fat droplets, ECM protein expression)” value is recorded as “did not activate PSCs from TRPV4-KO mice”. Further, the “effects of Yoda1 on fibrosis in Piezo1-deleted PSCs” value in test [2] (Piezo1GFAP-KO PSCs) is reported as “prevented in Piezo1-deleted PSCs”. The PSC activation phenotype result in test [2] (WT mouse PSCs) was “converted mouse PSCs to an activated phenotype with reduced perinuclear fat droplets, changes in cell shape, and increased fibronectin and collagen type I”. The “[Ca2+]i response in acini from TRPV4-KO mice” value in test [3] is “only transient elevation in [Ca^2+]i”.
